From patent US20250034116A1, “1,4-DIHETEROCYCLIC SUBSTITUTED AROMATIC RING OR AROMATIC HETEROCYCLIC COMPOUND AND USE THEREOF” (BeBetter Med Inc., priority 2022, published 2025)

Assays:
[1] = tested on: CYP enzymes in human liver microsomes (HLM); test: Inhibition of 20-HETE production in human liver microsomes (HLM); format: biochemical
How it was run: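 LC-MS/MS read-out of 20-HETE formation, expressed as activity relative to no-inhibitor control and fitted to a Hill equation for IC50; percent inhibition also given at 1000, 500 or 100 nM. Enzyme sources: recombinant CYP4F2, recombinant CYP4A11, or human or mouse liver microsomes. Each is combined with compound and substrate (400 μM solution) and warmed 10 min at 37 °C, then incubated 25 min at 37 °C after adding NADPH (6 mM solution).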

[2] = tested on: CYP enzymes in rat liver microsomes (RLM); test: Inhibition of 20-HETE production in rat liver microsomes (RLM); format: biochemical
How it was run: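 Test compounds were dissolved in DMSO, diluted in acetonitrile/DMSO (3:1), and 2 μl was mixed with 100 μl potassium phosphate buffer containing rat liver microsomes in a 96-well plate. Duplicate 30 μl aliquots received 15 μl of 400 μM substrate, were preheated at 37° C. for 10 minutes, then started with 15 μl of 6 mM NADPH for 25 minutes. LC-MS/MS measured 20-HETE formation.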

[3] = target: recombinant CYP4F2 (rCYP4F2) (Homo sapiens (Human), UniProt P78329); test: Inhibition of 20-HETE production by recombinant CYP4F2; format: biochemical; conditions: read-out: rCYP4F2 (% inh @ 100 nM)
Chain of recombinant CYP4F2 (rCYP4F2) (P78329 5-520): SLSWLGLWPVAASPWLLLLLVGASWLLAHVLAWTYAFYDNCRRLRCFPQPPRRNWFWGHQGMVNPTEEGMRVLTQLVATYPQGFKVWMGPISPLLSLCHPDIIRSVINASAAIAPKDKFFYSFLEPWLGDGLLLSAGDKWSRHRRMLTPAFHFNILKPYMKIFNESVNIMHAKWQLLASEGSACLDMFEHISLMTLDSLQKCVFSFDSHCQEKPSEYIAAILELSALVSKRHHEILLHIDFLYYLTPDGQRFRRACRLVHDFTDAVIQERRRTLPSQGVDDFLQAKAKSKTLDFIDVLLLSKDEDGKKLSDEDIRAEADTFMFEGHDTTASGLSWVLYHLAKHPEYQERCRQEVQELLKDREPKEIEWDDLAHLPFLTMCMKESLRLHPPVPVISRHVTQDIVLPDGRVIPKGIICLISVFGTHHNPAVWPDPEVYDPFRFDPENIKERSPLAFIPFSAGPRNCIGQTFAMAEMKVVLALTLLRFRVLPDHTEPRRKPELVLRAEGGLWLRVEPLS
Method: (§1) Experimental principle: The inhibitory activity of 20-HETE production is evaluated by testing the inhibitory effects of the compound on human liver microsomes (HLM), rat liver microsomes (RLM), mouse liver microsomes (MLM), or […] CYP4 subtype enzymes (CYP4F2). This assay employs HLM, RLM, or MLM along with recombinant CYP4F2 (rCYP4F2) and recombinant CYP4A11 (rCYP4A11), which are […] CYP4 subtype enzymes, to detect the effects of the test compound at different concentrations on the metabolic rate of enzyme-specific substrates, to determine the inhibitory effects of the test compound on CYP enzymes in HLM, RLM, or MLM.
(§2) Experimental methods: Dissolve the test compound in DMSO, and subsequently dilute it with an acetonitrile and DMSO mixture (3:1). Add 2 μl of varying concentrations of the test compound and 100 μl of potassium phosphate buffer containing either liver microsomes or recombinant enzymes to a 96-well plate. After mixing well, transfer 30 μl to another well (in duplicate), add 15 μl of 400 μM substrate solution, and mix well again. Preheat at 37° C. for 10 minutes, and then add 15 μl of 6 mM NADPH and incubate at 37° C. for 25 minutes. After 25 minutes, add 160 μl of acetonitrile solution (containing 0.1 μg/ml internal standard) to stop the reaction. Mix well, centrifuge at 3500 g for 15 minutes, and then analyze the supernatant using LC-MS/MS.
(§3) Plot the compound concentration on the x-axis and the inhibition rate on the y-axis to draw the curve. Use GraphPad Prism 5 software to fit the curve and calculate the IC50. The formula is Y=Bottom+(Top−Bottom)/(1+10^((Log IC50−X)×HillSlope)). X represents the logarithmic concentration of the inhibitor, and Y represents the relative enzyme activity at a given inhibitor concentration (relative to the condition without the inhibitor).
(§4) Calculate the inhibition percentages at concentrations of 1000 nM, 500 nM, or 100 nM as well as the half-maximal inhibitory concentration (IC50) of the test compound from the above experiment.

[4] = target: recombinant CYP4A11 (rCYP4A11) (Homo sapiens (Human), UniProt Q02928); test: Inhibition of 20-HETE production by recombinant CYP4A11; format: biochemical; conditions: read-out: rCYP4A11 (% inh @ 100 nM)
Chain of recombinant CYP4A11 (rCYP4A11) (Q02928 5-519): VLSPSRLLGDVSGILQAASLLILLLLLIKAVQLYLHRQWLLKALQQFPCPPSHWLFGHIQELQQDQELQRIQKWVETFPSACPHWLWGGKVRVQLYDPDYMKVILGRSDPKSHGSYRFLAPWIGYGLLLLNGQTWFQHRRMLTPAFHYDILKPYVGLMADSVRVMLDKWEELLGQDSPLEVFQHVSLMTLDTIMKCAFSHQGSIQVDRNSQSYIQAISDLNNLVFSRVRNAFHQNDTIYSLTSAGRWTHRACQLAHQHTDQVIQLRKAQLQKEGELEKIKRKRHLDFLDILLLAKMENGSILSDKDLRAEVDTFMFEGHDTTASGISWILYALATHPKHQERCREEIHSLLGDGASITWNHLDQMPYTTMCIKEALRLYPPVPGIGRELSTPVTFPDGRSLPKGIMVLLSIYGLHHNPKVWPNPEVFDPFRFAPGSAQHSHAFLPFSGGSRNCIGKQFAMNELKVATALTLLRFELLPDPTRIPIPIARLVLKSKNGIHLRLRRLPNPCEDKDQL
Method: as §1, §2, §3, §4

[5] = tested on: CYP enzymes in mouse liver microsomes (MLM); test: Inhibition of 20-HETE production in mouse liver microsomes (MLM); format: biochemical
Method: as §1, §2, §3, §4

[6] = Pharmacokinetic (PK) experiment, oral administration in rats; format: in vivo, Male SD rats; conditions: 20 mg/kg; for AUC(0-inf) / Cmax / Tmax / half-life / AUC(0-t): male, SD, rat, plasma; for AUC(0-t): read-out: AUC0-24
Method: Male SD rats, weighing 180-250 grams, were fasted overnight before testing. The test compound was dissolved in 30% sulfobutylether-β-cyclodextrin and administered orally at a dose of 20 mg/kg. Blood was collected from the tail vein at 15 minutes, 30 minutes, and 1, 2, 4, 6, 8, and 24 hours after administration. Approximately 0.3 ml of blood was collected at each time point, placed in a centrifuge tube containing K2-EDTA, and centrifuged (2000 g for 10 minutes at 4° C.) to take the plasma, which was then stored in an ultra-low temperature freezer at −70° C. or below. A 50 μL plasma sample was mixed with 135 μL of acetonitrile (containing 0.5 μg/mL internal standard) and vortexed for protein precipitation. After centrifugation, the supernatant was taken for LC-MS/MS analysis.

Compound	HLM (% inh @ 500 nM) [1] [%]	IC50 [2] [nM]	RLM (% inh @ 500 nM) [2] [%]	IC50 [1] [nM]	IC50 [5] [nM]	also measured
O=C1CCCN1CC1CCN(c2ccc(-c3cn[nH]c3)c(F)c2)CC1 [Compound 3, 1-((1-(3-fluoro-4-(1H-pyrazol-4-yl)phenyl)piperidin-4-yl)methyl)pyrrolidin-2-one]	75.59	322				inhibition at 0.1 µM [3]: 64.2%; inhibition at 0.1 µM [4]: 27.8%
O=C1CCCN1CC1CCN(c2ccc(-c3cn[nH]c3)cc2Cl)CC1 [Compound 11, 1-((1-(2-chloro-4-(1H-pyrazol-4-yl)phenyl)piperidin-4-yl)methyl)pyrrolidin-2-one]	80.98	157				inhibition at 0.1 µM [3]: 59.7%; inhibition at 0.1 µM [4]: 46.3%
O=C1CCCN1CC1CCN(c2ccc(-c3cn[nH]c3)cc2C(F)F)CC1 [Compound 19, 1-((1-(2-(difluoromethyl)-4-(1H-pyrazol-4-yl)phenyl)piperidin-4-yl)methyl)pyrrolidin-2-one]	87.01	434	59.42			inhibition at 0.1 µM [3]: 61.4%; inhibition at 0.1 µM [4]: 58.7%
O=C1CCCN1CC1CCN(c2ccc(-c3ccno3)cc2)CC1 [Compound 34, 1-((1-(4-(isoxazol-5-yl)phenyl)piperidin-4-yl)methyl)pyrrolidin-2-one]	71.06		83.75			inhibition at 0.1 µM [3]: 49.7%; inhibition at 0.1 µM [4]: 1.59%
O=C(Nc1ccccc1)C1CCN(c2ccc(-c3cn[nH]c3)cc2)CC1 [Compound 58, 1-(4-(1H-pyrazol-4-yl)phenyl)-N-phenylpiperidine-4-carboxamide]			44.45	16.6	1570	
O=C(N1CC=C(c2ccc(-c3cn[nH]c3)c(F)c2F)CC1)N1CCCC1 [Compound 91, (4-(2,3-difluoro-4-(1H-pyrazol-4-yl)phenyl)-3,6-dihydropyridin-1(2H)-yl)(pyrrolidin-1-yl) methanone]	96.45	9.09		19.1	735	absorption and blood exposure after oral administration (in words) [6]: well absorbed and exhibit high blood exposure; AUC(0-inf) [6]: 107000 ng·h/mL; Cmax [6]: 11400 ng/mL; Tmax [6]: 2.5 h; half-life [6]: 2.22 h; AUC(0-t) [6]: 107000 ng·h/mL
O=C(CC1CCCC1)N1CCC(c2ccc(-c3cn[nH]c3)c(F)c2F)CC1 [Compound 93, 2-cyclopentyl-1-(4-(2,3-difluoro-4-(1H-pyrazol-4-yl)phenyl)piperidin-1-yl)ethan-1-one]	91.77		80.86		296	
C[C@@H]1CN(c2ccc(-c3cn[nH]c3)c(F)c2F)CCN1C(=O)N1CCCC1 [Compound 103, (R)-(4-(2,3-difluoro-4-(1H-pyrazol-4-yl)phenyl)-2-methylpiperazin-1-yl)(pyrrolidin-1-yl) methanone]	80.55		74.73	12	743	
C[C@H]1CN(c2ccc(-c3cn[nH]c3)c(F)c2F)CCN1C(=O)N1CCCC1 [Compound 105, (S)-(4-(2,3-difluoro-4-(1H-pyrazol-4-yl)phenyl)-2-methylpiperazin-1-yl)(pyrrolidin-1-yl) methanone]	79.54	9.78		11.1	1520	
O=C(N1CCC(c2ccc(-c3cn[nH]c3)cc2F)CC1)N1CC2CCCC2C1 (centres unmarked) [Compound 106, (4-(2-fluoro-4-(1H-pyrazol-4-yl)phenyl)piperidin-1-yl)(hexahydrocyclopenta[c]pyrrol-2 (1H)-yl) methanone]	91.17	10.7	84.57	23.2	2810	
O=C1CCC(C(=O)N2CCC(c3ccc(-c4cn[nH]c4)c(F)c3F)CC2)CC1 [Compound 107, 4-(4-(2,3-difluoro-4-(1H-pyrazol-4-yl)phenyl)piperidine-1-carbonyl)cyclohexane-1-one]		33.4	69.55	23.6	720	
O=C(N1CCC(c2ccc(-c3cn[nH]c3)c(F)c2F)CC1)C1(O)CCCCC1 [Compound 110, (4-(2,3-difluoro-4-(1H-pyrazol-4-yl)phenyl)piperidin-1-yl)(1-hydroxycyclohexyl) methanone]	92.92	29.5	77.32	16.1	174	
O=C(C1CCCC1)N1CCC2(CCN(c3ccc(-c4cn[nH]c4)cc3F)C2)C1 (centres unmarked) [Compound 124, cyclopentyl(7-(2-fluoro-4-(1H-pyrazol-4-yl)phenyl)-2,7-diazaspiro[4.4]nonan-2-yl) methanone]	88.29		74.61	32.8	1850	
O=C(N1CCCC1)N1CC2CN(c3ccc(-c4cn[nH]c4)c(F)c3F)CC2C1 (centres unmarked) [Compound 127, (5-(2,3-difluoro-4-(1H-pyrazol-4-yl)phenyl)hexahydropyrrolo[3,4-c]pyrrol-2 (1H)-yl)(pyrrolidin-1-yl) methanone]		17.9	74.10	18.3	1900	
CC1CN(c2ccc(-c3cn[nH]c3)cc2F)CC(C)N1C(=O)N1CCCC1 (centres unmarked) [Compound 130, (4-(2-fluoro-4-(1H-pyrazol-4-yl)phenyl)-2,6-dimethylpiperazin-1-yl)(pyrrolidin-1-yl) methanone]		22.8		7.62	414	
COC1(C(=O)N2CCC(c3ccc(-c4cn[nH]c4)cc3)CC2)CCCCC1 [Compound 150, (4-(4-(1H-pyrazol-4-yl)phenyl)piperidin-1-yl)(1-methoxycyclohexyl) methanone]						HLM (% inh @ 100 nM) [1]: 84.56%; MLM (% inh @ 1000 nM) [5]: 40.18%
CC(C)(O)CNC(=O)N1CCC(c2ccc(-c3cn[nH]c3)cc2F)CC1 [Compound 152, 4-(2-fluoro-4-(1H-pyrazol-4-yl)phenyl)-N-(2-hydroxy-2-methylpropyl)piperidine-1-carboxamide]						HLM (% inh @ 100 nM) [1]: 88.49%; MLM (% inh @ 1000 nM) [5]: 48.10%
O=C1CCCCCN1CC1CCN(c2ccc(-c3cn[nH]c3)cc2F)CC1 [Compound 161, 1-((1-(2-fluoro-4-(1H-pyrazol-4-yl)phenyl)piperidin-4-yl)methyl) azepan-2-one]						HLM (% inh @ 100 nM) [1]: 86.45%; MLM (% inh @ 1000 nM) [5]: 59.36%
O=S1(=O)CCCCN1CC1CCN(c2ccc(-c3cn[nH]c3)cc2F)CC1 [Compound 163, 2-((1-(2-fluoro-4-(1H-pyrazol-4-yl)phenyl)piperidin-4-yl)methyl)-1,2-thiazinane 1,1-dioxide]	90.91	222	64.17	9.53	1010	absorption and blood exposure after oral administration (in words) [6]: well absorbed and exhibit high blood exposure; AUC(0-inf) [6]: 44700 ng·h/mL; Cmax [6]: 6680 ng/mL; Tmax [6]: 1.67 h; half-life [6]: 4.03 h; AUC(0-t) [6]: 44100 ng·h/mL
